Data reported in patent US5310757A, “3,3,5-trimethylcyclohexyl 2-methylpropionate derivatives, their method of preparation and therapeutic compositions in which they are present” (Panmedica, priority 1989, dated 1994).

What was measured:
[1] = system: HMG-CoA red.; assay: HMG-CoA red. activity "ex vivo" in liver microsomes after chronic intraperitoneal administration to rats; parameters: Mevalonate formed: unit not given here; details: 50 mg/kg for 6 days; for Mevalonate formed: Control 17; for % inhibition: inhibition of HMG-CoA red. activity, Control 0
Protocol: The inhibitory activity of the products according to the present invention was determined by the method of Kuroda et al. (Biochemica et Biophysica Acta, vol. 486, pp. 70-81 (1977)), which is a modification of the method of Shapiro et al. (Analytical Biochemistry, vol. 31, pp. 383-390 (1969)). […] The doses administered were 50 mg/kg for 6 days; six rats were used in each series; they are sacrificed without anaesthesia and the liver microsomes are isolated for the assay, which is performed according to the above-mentioned protocol.

[2] = system: hyperlipidaemia caused by TRITON 1339; assay: test for the hyperlipidaemia caused by TRITON 1339; assay type: in vivo; details: rats, Triton test after oral administration for six days, 0.5 millimol per kilogram; for HDL cholesterol: Control 0.7 ± 0.1, Triton 0.8 ± 0.1; for Triglycerides: Control 1 ± 0.3, Triton 10 ± 7; for Total cholesterol: Control 2 ± 0.15, Triton 9 ± 3; for Total lipids: Control 3.5 ± 0.4, Triton 20 ± 10
Protocol: The Table below summarizes the results of the pharmacological studies carried out especially by means of the test for the hyperlipidaemia caused by TRITON 1339. The experimental protocol was that published by J. C. […] et al. (Gaz. Med. France, 3rd inter. coll. 1982, Dijon, 18-22). The tests are performed on groups of 7 rats weighing from 280 to 290 g. The Triton test is carried out after oral administration for six days at a rate of 0.5 millimol per kilogram of body weight. The following lipid parameters are measured: total cholesterol, triglycerides, total lipids and HDL cholesterol.

[3] = target: T1, 3-hydroxy-3-methylglutaryl-CoA reductase (Rattus norvegicus, UniProt P51639); assay: inhibition of 3-hydroxy-3-methylglutaryl-CoA reductase activity (method of Kuroda et al.); assay type: biochemical; details: concentration for 50% inhibition of 3-hydroxy-3-methylglutaryl-CoA reductase activity
T1 construct: from tissue
T1 sequence (P51639 1-887): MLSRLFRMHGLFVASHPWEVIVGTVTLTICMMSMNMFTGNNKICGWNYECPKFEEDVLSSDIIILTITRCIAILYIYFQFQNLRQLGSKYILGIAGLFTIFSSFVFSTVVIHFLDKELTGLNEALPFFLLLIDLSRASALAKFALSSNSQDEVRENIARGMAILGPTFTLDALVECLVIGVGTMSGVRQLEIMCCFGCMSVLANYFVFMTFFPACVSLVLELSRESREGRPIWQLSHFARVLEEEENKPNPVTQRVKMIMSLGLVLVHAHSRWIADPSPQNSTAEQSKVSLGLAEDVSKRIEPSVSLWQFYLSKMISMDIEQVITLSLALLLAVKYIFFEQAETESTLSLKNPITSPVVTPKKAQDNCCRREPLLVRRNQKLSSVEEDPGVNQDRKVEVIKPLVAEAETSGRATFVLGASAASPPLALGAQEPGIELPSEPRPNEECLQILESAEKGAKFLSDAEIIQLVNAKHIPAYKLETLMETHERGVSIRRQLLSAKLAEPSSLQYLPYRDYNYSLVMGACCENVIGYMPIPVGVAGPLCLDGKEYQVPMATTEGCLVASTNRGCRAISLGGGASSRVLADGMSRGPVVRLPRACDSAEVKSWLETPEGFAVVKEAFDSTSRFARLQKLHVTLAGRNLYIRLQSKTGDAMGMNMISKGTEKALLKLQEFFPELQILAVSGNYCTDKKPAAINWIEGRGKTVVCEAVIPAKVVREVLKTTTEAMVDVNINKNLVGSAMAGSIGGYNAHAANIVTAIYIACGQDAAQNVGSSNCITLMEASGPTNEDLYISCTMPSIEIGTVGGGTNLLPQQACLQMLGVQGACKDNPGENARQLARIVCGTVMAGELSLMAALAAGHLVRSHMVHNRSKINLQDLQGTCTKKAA
Protocol: The biosynthesis of cholesterol in an isolated enzymatic system or in a cell culture from organs removed from experimental animals is inhibited by limiting the activity of the enzyme 3-hydroxy-3-methylglutaryl-CoA reductase.
The inhibitory activity of the products according to the present invention was determined by the method of Kuroda et al. (Biochemica et Biophysica Acta, vol. 486, pp. 70-81 (1977)), which is a modification of the method of Shapiro et al. (Analytical Biochemistry, vol. 31, pp. 383-390 (1969)). The results are summarized in Table II, where IC50 is the concentration of product in the experimental medium which is necessary to achieve a 50% inhibition of the 3-hydroxy-3-methylglutaryl-CoA reductase activity, expressed in nanomol.

| IC50 [3] | Compound | Mevalonate formed [1] | % inhibition [1] | HDL cholesterol [2] | Triglycerides [2] | Total cholesterol [2] | Total lipids [2] |
| --- | --- | --- | --- | --- | --- | --- | --- |
|  | C[C@H]1C[C@H](OC(=O)C(C)(C)Oc2ccc(C(=O)Cc3ccccc3)cc2)CC(C)(C)C1 (relative stereo) [Example 17, (TRANS) 3,3,5-TRIMETHYLCYCLOHEXYL 2-(4-PHENYLACETYLPHENOXY)-2-METHYLPROPIONATE] | 8.66 | 50% |  |  |  |  |
|  | Cc1ccc(C)c(OCCCC(C)(C)C(=O)O[C@H]2C[C@H](C)CC(C)(C)C2)c1 (relative stereo) [Example 6, (TRANS) 3,3,5-TRIMETHYLCYCLOHEXYL 2-(3-(2,5-DIMETHYLPHENOXY)PROPYL)-2-METHYLPROPIONATE] | 6.01 | 65% | 0.9 ± 0.3 mmol/L | 1.7 ± 0.3 mmol/L | 2.0 ± 0.2 mmol/L | 8.0 ± 3 g/L |
| 0.0357 µM | CC(=O)c1cccc(OC(C)(C)C(=O)O[C@H]2C[C@H](C)CC(C)(C)C2)c1 (relative stereo) [Example 13, (TRANS) 3,3,5-TRIMETHYLCYCLOHEXYL 2-(3-ACETYLPHENOXY)-2-METHYLPROPIONATE] |  |  |  |  |  |  |
| 0.0219 µM | CC(=O)c1ccc(OC(C)(C)C(=O)O[C@H]2C[C@@H](C)CC(C)(C)C2)c(Cl)c1 (relative stereo) [Example 12, (CIS) 3,3,5-TRIMETHYLCYCLOHEXYL 2-(4-ACETYL-2-CHLOROPHENOXY)-2-METHYLPROPIONATE] |  |  |  |  |  |  |
| 0.0459 µM | CC(=O)c1ccc(OC(C)(C)C(=O)O[C@H]2C[C@@H](C)CC(C)(C)C2)cc1 (relative stereo) [Example 16, (CIS) 3,3,5-TRIMETHYLCYCLOHEXYL 2-(4-ACETYLPHENOXY)-2-METHYLPROPIONATE] |  |  |  |  |  |  |
|  | Cc1ccc(OCCCCC(C)(C)C(=O)O[C@H]2C[C@@H](C)CC(C)(C)C2)c(C)c1 (relative stereo) [Example 21, (CIS) 3,3,5-TRIMETHYLCYCLOHEXYL 2-(4-(2,4-DIMETHYLPHENOXY)BUTYL)-2-METHYLPROPIONATE] | 3.8 | 78% |  |  |  |  |
| 0.0302 µM | Cc1cc(C)cc(OCCCCC(C)(C)C(=O)O[C@H]2C[C@@H](C)CC(C)(C)C2)c1 (relative stereo) [Example 22, (CIS) 3,3,5-TRIMETHYLCYCLOHEXYL 2-(4-(3,5-DIMETHYLPHENOXY)BUTYL)-2-METHYLPROPIONATE] |  |  |  |  |  |  |
|  | C[C@@H]1C[C@H](OC(=O)C(C)(C)Oc2ccc(-c3ccccc3)cc2)CC(C)(C)C1 (relative stereo) [Example 8, (CIS) 3,3,5-TRIMETHYLCYCLOHEXYL 2-(4-PHENYLPHENOXY)-2-METHYLPROPIONATE] |  |  | 1.1 ± 0.2 mmol/L | 6.0 ± 4 mmol/L | 3.0 ± 0.2 mmol/L | 3.6 ± 0.2 g/L |
| 0.0256 µM | C[C@@H]1C[C@H](OC(=O)C(C)(C)Oc2ccc(CCNC(=O)c3ccc(Cl)cc3)cc2)CC(C)(C)C1 (relative stereo) [Example 4, (CIS) 3,3,5-TRIMETHYLCYCLOHEXYL 2-(4-(2-(4-CHLOROBENZAMIDO)ETHYL)PHENOXY)-2-METHYLPROPIONATE] |  |  | 2.2 ± 0.3 mmol/L | 2.5 ± 0.5 mmol/L | 2.6 ± 0.3 mmol/L | 4.8 ± 0.7 g/L |
| 0.039 µM | C[C@H]1C[C@H](OC(=O)C(C)(C)Oc2ccc(CCNC(=O)c3ccc(Cl)cc3)cc2)CC(C)(C)C1 (relative stereo) [Example 3, (TRANS) 3,3,5-TRIMETHYLCYCLOHEXYL 2-(4-(2-(4-CHLOROBENZAMIDO)ETHYL)PHENOXY)-2-METHYLPROPIONATE] |  |  | 1.6 ± 0.4 mmol/L | 1.2 ± 0.4 mmol/L | 1.2 ± 0.7 mmol/L | 3.8 ± 0.5 g/L |
|  | CC(=O)c1cccc(OC(C)(C)C(=O)O[C@H]2C[C@@H](C)CC(C)(C)C2)c1 (relative stereo) [Example 14, (CIS) 3,3,5-TRIMETHYLCYCLOHEXYL 2-(3-ACETYLPHENOXY)-2-METHYLPROPIONATE] |  |  | 2.1 ± 0.1 mmol/L | 6.0 ± 3.0 mmol/L | 3.0 ± 0.3 mmol/L | 4.8 ± 0.6 g/L |
|  | CC(C)OC(=O)C(C)(C)Oc1ccc(C(=O)c2ccc(Cl)cc2)cc1 [Fenofibrate, isopropyl 4-(4-chlorobenzoyl)phenoxyisobutyrate, reference compound] | 4.16 |  |  |  |  |  |
|  | CC(=O)c1ccc(OC(C)(C)C(=O)O[C@@H]2C[C@@H](C)CC(C)(C)C2)cc1 (relative stereo) [Example 15, (TRAMS) 3,3,5-TRIMETHYLCYCLOHEXYL 2-(4-ACETYLPHENOXY)-2-METHYLPROPIONATE] |  |  | 1.7 ± 0.1 mmol/L | 1.7 ± 1.2 mmol/L | 2.8 ± 0.2 mmol/L | 3.0 ± 0.3 g/L |
| 0.0405 µM | C[C@@H]1C[C@H](OC(=O)C(C)(C)CCCCOc2ccccc2)CC(C)(C)C1 (relative stereo) [Example 20, (CIS) 3,3,5-TRIMETHYLCYCLOHEXYL 2-(4-PHENOXYBUTYL)-2-METHYLPROPIONATE] |  |  |  |  |  |  |
|  | CC(=O)c1ccc(OC(C)(C)C(=O)O[C@H]2C[C@H](C)CC(C)(C)C2)c(Cl)c1 (relative stereo) [Example 11, (TRANS) 3,3,5-TRIMETHYLCYCLOHEXYL 2-(4-ACETYL-2-CHLOROPHENOXY)-2-METHYLPROPIONATE] |  |  | 1.0 ± 0.1 mmol/L | 1.0 ± 0.1 mmol/L | 1.8 ± 0.4 mmol/L | 11 ± 5 g/L |
|  | C[C@H]1C[C@H](OC(=O)C(C)(C)Oc2ccc(C(=O)c3ccc(Cl)cc3)cc2)CC(C)(C)C1 (relative stereo) [Example 1, (TRANS) 3,3,5-TRIMETHYLCYCLOHEXYL 2-(4-(4-CHLOROBENZOYL)PHENOXY)-2-METHYLPROPIONATE] | 4.44 | 74% | 1.5 ± 0.4 mmol/L | 0.8 ± 0.1 mmol/L | 3.5 ± 1.4 mmol/L | 3.6 ± 0.5 g/L |
| 0.0376 µM | CCC(=O)c1ccc(OC(C)(C)C(=O)O[C@H]2C[C@@H](C)CC(C)(C)C2)cc1 (relative stereo) [Example 10, (CIS) 3,3,5-TRIMETHYLCYCLOHEXYL 2-(4-PROPIONYLPHENOXY)-2-METHYLPROPIONATE] |  |  |  |  |  |  |
| 0.0329 µM | C[C@@H]1C[C@H](OC(=O)C(C)(C)Oc2ccc(C(=O)Cc3ccccc3)cc2)CC(C)(C)C1 (relative stereo) [Example 18, (CIS) 3,3,5-TRIMETHYLCYCLOHEXYL 2-(4-PHENYLACETYLPHENOXY)-2-METHYLPROPIONATE] |  |  |  |  |  |  |
|  | C[C@H]1C[C@H](OC(=O)C(C)(C)CCCCOc2ccccc2)CC(C)(C)C1 (relative stereo) [Example 19, (TRANS) 3,3,5-TRIMETHYLCYCLOHEXYL 2-(4-PHENOXYBUTYL)- 2-METHYLPROPIONATE] | 5.2 | 70% |  |  |  |  |
|  | CCC(=O)c1ccc(OC(C)(C)C(=O)O[C@H]2C[C@H](C)CC(C)(C)C2)cc1 (relative stereo) [Example 9, (TRANS) 3,3,5-TRIMETHYLCYCLOHEXYL 2-(4-PROPIONYLPHENOXY)-2-METHYLPROPIONATE] |  |  | 2.0 ± 0.6 mmol/L | 1.6 ± 0.3 mmol/L | 2.5 ± 0.6 mmol/L | 5.0 ± 0.2 g/L |
